# Reference: BindingDB's records for doi:10.1016/S0960-894X(00)80308-X (1993)
# Target: Human immunodeficiency virus type 1 protease (Human immunodeficiency virus 1, UniProt Q72874)
# Assay: ChEBML_159632
# Protocol: Inhibitory concentration required to inhibit HIV-1 protease was determined
row,SMILES,Ki [µM]
1,CC(C)(C)OC(=O)N[C@H](C(=O)C(=C=N)c1ccc([N+](=O)[O-])cc1)C(=O)C(N)c1ccccc1 (some centres not stated),30
2,N=C=C(C(=O)[C@H](Cc1ccccc1)NC(=O)OCc1ccccc1)c1ccc([N+](=O)[O-])cc1,30
